Test results: PMC9234961 (Journal of Medicinal Chemistry, 2022)
Like-named read-outs stand apart in the source and are kept apart here.

Tests used:
kinases (468) [1] = biological target: kinases (468) (Homo sapiens, UniProt P27037); details: ACVR2A; 1000 nM
kinases (468) [2] = biological target: kinases (468) (Homo sapiens, UniProt Q9NYY3); details: PLK2; 1000 nM
kinases (468) [3] = biological target: kinases (468) (Homo sapiens, UniProt Q86YV6); details: MYLK4; 1000 nM
kinases (468) [4] = biological target: kinases (468) (Homo sapiens, UniProt P00519, F317L); details: 1000 nM
Chain of kinases (468) (Homo sapiens, UniProt P00519, F317L) (P00519 whole entry F317L): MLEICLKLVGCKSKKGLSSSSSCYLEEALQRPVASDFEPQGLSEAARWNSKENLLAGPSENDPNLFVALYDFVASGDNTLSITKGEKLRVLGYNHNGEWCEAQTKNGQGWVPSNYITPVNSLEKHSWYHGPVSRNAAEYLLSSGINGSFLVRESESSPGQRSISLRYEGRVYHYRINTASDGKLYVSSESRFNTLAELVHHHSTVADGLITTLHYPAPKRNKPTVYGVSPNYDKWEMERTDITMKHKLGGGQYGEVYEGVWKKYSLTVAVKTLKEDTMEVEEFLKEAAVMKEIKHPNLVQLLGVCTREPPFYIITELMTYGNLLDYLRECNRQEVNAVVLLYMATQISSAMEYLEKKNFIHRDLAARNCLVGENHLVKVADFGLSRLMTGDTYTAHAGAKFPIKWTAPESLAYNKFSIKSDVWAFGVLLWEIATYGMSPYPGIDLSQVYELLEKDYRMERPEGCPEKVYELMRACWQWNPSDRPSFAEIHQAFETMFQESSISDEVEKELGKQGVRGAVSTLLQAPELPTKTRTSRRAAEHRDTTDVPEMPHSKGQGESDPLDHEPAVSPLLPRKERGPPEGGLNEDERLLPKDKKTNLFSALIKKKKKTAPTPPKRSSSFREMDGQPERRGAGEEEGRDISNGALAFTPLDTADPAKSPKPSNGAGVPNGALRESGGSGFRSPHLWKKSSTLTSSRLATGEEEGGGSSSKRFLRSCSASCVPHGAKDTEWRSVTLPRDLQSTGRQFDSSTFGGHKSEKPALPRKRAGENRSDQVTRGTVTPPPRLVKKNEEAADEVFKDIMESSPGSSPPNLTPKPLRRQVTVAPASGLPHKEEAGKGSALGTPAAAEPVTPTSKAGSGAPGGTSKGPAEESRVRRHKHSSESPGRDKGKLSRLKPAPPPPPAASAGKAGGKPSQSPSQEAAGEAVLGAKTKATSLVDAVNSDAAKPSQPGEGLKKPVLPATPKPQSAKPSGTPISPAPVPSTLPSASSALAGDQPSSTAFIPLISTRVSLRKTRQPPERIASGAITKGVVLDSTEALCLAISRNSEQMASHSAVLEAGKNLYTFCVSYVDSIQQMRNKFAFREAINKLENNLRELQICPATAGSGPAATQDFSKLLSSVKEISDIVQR

kinases (468) [5] = biological target: kinases (468) (Homo sapiens, UniProt P31152); details: ERK4 (MAPK4); 1000 nM
kinases (468) [6] = biological target: kinases (468) (Homo sapiens, UniProt O75914); details: PAK3; 1000 nM
kinases (468) [7] = biological target: kinases (468) (Homo sapiens, UniProt O60285); details: ARK5 (NUAK1); 1000 nM
Chain of kinases (468) (Homo sapiens, UniProt O60285) (O60285 whole entry): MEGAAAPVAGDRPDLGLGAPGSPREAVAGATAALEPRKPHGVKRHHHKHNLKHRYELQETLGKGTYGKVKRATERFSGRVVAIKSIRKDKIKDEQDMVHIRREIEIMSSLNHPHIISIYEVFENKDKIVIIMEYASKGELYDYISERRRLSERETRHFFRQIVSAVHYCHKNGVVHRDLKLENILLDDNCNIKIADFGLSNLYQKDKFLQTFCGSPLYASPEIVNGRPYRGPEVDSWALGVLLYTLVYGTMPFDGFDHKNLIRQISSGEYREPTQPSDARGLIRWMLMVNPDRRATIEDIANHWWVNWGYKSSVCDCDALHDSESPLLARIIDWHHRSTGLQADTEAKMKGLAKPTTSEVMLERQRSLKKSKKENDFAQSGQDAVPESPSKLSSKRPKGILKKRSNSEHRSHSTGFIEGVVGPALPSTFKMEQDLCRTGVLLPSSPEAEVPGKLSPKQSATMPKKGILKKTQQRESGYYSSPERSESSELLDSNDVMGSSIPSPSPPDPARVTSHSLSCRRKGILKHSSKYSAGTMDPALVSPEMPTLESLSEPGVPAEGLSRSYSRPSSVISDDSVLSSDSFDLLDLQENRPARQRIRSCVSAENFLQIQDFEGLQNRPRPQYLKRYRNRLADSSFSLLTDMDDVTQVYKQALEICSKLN

kinases (468) [8] = biological target: kinases (468) (Homo sapiens, UniProt Q15831); details: LKB1 (STK11); 1000 nM
kinases (468) [9] = biological target: kinases (468) (Homo sapiens, UniProt O00506); details: kinase YSK1 (Entrez STK25); compound concentration 1000 nM
kinases (468) [10] = biological target: kinases (468) (Homo sapiens, UniProt Q13523); details: PRP4 (PRPF4B); 1000 nM
kinases (468) [11] = biological target: kinases (468) (Homo sapiens, UniProt P42336, C420R); details: PIK3CA(C420R); 1000 nM
kinases (468) [12] = biological target: kinases (468) (Homo sapiens, UniProt Q06187); details: BTK; 1000 nM
Chain of kinases (468) (Homo sapiens, UniProt Q06187) (Q06187 whole entry): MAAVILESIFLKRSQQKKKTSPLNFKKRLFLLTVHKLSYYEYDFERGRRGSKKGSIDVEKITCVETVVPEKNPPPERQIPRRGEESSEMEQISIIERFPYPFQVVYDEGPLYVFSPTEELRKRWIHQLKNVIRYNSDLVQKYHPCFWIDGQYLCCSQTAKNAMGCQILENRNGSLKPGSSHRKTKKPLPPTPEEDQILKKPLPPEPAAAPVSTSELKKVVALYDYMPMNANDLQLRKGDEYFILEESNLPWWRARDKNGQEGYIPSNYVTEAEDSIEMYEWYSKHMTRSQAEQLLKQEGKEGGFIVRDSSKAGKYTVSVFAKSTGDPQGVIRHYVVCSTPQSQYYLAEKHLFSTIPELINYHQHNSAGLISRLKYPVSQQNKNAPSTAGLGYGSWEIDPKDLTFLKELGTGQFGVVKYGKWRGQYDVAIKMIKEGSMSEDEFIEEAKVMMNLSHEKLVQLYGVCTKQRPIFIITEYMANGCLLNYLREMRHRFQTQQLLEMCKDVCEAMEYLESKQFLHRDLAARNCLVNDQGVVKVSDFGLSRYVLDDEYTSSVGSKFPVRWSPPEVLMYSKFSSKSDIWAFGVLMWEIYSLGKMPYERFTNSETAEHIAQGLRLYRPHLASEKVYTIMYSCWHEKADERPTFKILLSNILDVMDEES

kinases (468) [13] = biological target: kinases (468) (Homo sapiens, UniProt O75582); details: compound concentration 1000 nM
Chain of kinases (468) (Homo sapiens, UniProt O75582) (O75582 whole entry): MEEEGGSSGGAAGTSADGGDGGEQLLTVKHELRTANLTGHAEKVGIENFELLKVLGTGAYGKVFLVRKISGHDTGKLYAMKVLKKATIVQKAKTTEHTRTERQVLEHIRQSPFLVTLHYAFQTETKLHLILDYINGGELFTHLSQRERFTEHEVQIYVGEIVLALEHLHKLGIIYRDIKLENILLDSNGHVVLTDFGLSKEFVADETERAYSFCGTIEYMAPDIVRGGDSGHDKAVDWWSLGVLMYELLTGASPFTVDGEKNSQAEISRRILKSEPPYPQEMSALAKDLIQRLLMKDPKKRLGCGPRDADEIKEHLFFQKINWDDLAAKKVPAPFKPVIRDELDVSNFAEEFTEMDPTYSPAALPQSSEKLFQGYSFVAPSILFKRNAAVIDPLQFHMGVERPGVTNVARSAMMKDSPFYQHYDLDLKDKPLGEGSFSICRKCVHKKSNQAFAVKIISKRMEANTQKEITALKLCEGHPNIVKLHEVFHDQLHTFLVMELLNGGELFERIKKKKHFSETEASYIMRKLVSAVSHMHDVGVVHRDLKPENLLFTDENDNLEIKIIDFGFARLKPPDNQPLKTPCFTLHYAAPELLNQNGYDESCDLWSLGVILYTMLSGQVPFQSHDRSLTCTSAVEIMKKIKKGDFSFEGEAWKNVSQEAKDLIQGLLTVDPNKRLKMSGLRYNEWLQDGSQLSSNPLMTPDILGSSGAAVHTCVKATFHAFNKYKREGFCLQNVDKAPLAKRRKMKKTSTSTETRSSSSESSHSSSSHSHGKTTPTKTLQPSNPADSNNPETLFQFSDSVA

kinases (468) [14] = biological target: kinases (468) (Homo sapiens, UniProt O15111); details: IKK-alpha (CHUK); 1000 nM
kinases (468) [15] = biological target: kinases (468) (Homo sapiens, UniProt P78362); details: kinase SRPK2 (Entrez SRPK2); compound concentration 1000 nM
kinases (468) [16] = biological target: kinases (468) (Homo sapiens, UniProt Q99640); details: PKMYT1; 1000 nM
kinases (468) [17] = biological target: kinases (468) (Homo sapiens, UniProt Q9NRP7); details: kinase STK36 (Entrez STK36); compound concentration 1000 nM
kinases (468) [18] = biological target: kinases (468) (Homo sapiens, UniProt P31749); details: AKT1; 1000 nM
kinases (468) [19] = biological target: kinases (468) (Homo sapiens, UniProt Q59H18); details: kinase TNNI3K (Entrez TNNI3K); compound concentration 1000 nM
kinases (468) [20] = biological target: kinases (468) (Homo sapiens, UniProt Q9BYT3); details: kinase STK33 (Entrez STK33); compound concentration 1000 nM
kinases (468) [21] = biological target: kinases (468) (Homo sapiens, UniProt P49760); details: CLK2; 1000 nM
kinases (468) [22] = biological target: kinases (468) (Homo sapiens, UniProt Q6P3R8); details: NEK5; 1000 nM
kinases (468) [23] = biological target: kinases (468) (Homo sapiens, UniProt Q9UPE1); details: kinase SRPK3 (Entrez SRPK3); compound concentration 1000 nM
Chain of kinases (468) (Homo sapiens, UniProt Q9UPE1) (Q9UPE1 whole entry): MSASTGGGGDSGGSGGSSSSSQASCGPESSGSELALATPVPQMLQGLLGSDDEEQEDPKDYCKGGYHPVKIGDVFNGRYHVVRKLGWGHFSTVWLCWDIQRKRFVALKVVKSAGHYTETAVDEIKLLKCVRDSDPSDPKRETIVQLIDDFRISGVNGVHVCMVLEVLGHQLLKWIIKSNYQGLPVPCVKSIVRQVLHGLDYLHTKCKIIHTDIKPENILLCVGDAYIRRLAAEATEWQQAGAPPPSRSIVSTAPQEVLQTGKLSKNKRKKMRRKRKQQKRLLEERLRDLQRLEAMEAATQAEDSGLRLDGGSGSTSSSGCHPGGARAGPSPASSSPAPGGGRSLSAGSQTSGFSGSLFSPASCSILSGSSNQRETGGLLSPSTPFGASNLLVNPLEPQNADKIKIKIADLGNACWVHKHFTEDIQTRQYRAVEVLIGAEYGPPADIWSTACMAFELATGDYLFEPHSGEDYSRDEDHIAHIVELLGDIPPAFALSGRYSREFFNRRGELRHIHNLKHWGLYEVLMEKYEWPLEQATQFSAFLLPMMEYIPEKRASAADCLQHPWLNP

kinases (468) [24] = biological target: kinases (468) (Homo sapiens, UniProt Q8TDX7); details: NEK7; 1000 nM
kinases (468) [25] = biological target: kinases (468) (Homo sapiens, UniProt Q9UHD2); details: kinase TBK1 (Entrez TBK1); compound concentration 1000 nM
kinases (468) [26] = biological target: kinases (468) (Homo sapiens, UniProt P11309); details: PIM1; 1000 nM
kinases (468) [27] = biological target: kinases (468) (Homo sapiens, UniProt Q8TF76); details: HASPIN (GSG2); 1000 nM
kinases (468) [28] = biological target: kinases (468) (Homo sapiens, UniProt P51617); details: IRAK1; 1000 nM
kinases (468) [29] = biological target: kinases (468) (Homo sapiens, UniProt P10721, L576P); details: KIT(L576P); 1000 nM
kinases (468) [30] = biological target: kinases (468) (Homo sapiens, UniProt P45983); details: JNK1 (MAPK8); 1000 nM
kinases (468) [31] = biological target: kinases (468) (Homo sapiens, UniProt O14920); details: IKK-beta (IKBKB); 1000 nM
kinases (468) [32] = biological target: kinases (468) (Homo sapiens, UniProt P23458); details: 1000 nM
Chain of kinases (468) (Homo sapiens, UniProt P23458) (P23458 whole entry): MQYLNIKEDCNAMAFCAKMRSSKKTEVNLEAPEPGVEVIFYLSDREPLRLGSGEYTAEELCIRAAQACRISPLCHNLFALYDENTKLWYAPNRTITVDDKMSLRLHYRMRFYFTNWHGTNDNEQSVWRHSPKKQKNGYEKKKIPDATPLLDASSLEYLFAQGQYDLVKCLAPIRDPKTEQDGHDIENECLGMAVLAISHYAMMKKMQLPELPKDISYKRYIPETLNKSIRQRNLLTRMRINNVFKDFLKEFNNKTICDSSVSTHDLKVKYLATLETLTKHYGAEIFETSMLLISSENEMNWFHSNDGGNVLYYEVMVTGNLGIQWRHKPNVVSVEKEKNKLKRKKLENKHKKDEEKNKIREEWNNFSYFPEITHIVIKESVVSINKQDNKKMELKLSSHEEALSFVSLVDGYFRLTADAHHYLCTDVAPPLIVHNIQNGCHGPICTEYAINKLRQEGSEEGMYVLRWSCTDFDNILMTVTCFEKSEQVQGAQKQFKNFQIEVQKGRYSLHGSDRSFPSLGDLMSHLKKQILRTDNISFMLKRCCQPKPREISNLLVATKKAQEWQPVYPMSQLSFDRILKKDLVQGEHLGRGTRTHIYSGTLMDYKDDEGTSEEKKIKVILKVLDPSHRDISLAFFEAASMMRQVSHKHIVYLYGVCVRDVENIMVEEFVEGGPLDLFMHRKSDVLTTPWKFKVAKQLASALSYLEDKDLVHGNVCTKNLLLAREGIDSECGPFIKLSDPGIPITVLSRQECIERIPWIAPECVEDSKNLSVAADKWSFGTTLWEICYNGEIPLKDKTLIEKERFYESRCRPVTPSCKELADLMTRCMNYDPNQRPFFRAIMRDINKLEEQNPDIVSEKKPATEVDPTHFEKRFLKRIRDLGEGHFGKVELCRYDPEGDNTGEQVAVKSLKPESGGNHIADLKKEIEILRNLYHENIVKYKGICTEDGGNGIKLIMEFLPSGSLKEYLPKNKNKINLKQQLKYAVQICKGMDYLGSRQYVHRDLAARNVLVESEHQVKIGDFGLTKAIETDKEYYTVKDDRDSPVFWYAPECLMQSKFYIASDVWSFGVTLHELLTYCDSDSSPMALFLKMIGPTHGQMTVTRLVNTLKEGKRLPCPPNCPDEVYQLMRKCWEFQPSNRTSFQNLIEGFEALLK

kinases (468) [33] = biological target: kinases (468) (Homo sapiens, UniProt Q9UBE8); details: NLK; 1000 nM

C[C@H]1C[C@@H](O)CN(c2ncc(Cl)c(Nc3ccc4c(c3)c3c(c(=O)n4C)OCC(F)(F)[C@H](C4CC4)N3)n2)C1 [CCT373566_9A]
Percent Control (kinases (468) [1]): 82% | Percent Control (kinases (468) [2]): 87% | Percent Control (kinases (468) [3]): 100% | Percent Control (kinases (468) [4]; ABL1(F317L)-nonphosphorylated): 100% | Percent Control (kinases (468) [4]; ABL1(F317L)-phosphorylated): 93% | Percent Control (kinases (468) [5]): 100% | Percent Control (kinases (468) [6]): 99% | Percent Control (kinases (468) [7]): 98% | Percent Control (kinases (468) [8]): 65% | Percent Control (kinases (468) [9]): 91% | Percent Control (kinases (468) [10]): 94% | Percent Control (kinases (468) [11]): 93% | Percent Control (kinases (468) [12]): 100% | Percent Control (kinases (468) [13]; kinase RPS6KA5(Kin.Dom.1-N-terminal) (Entrez RPS6KA5)): 93% | Percent Control (kinases (468) [13]; kinase RPS6KA5(Kin.Dom.2-C-terminal) (Entrez RPS6KA5)): 96% | Percent Control (kinases (468) [14]): 99% | Percent Control (kinases (468) [15]): 100% | Percent Control (kinases (468) [16]): 100% | Percent Control (kinases (468) [17]): 91% | Percent Control (kinases (468) [18]): 100% | Percent Control (kinases (468) [19]): 100% | Percent Control (kinases (468) [20]): 100% | Percent Control (kinases (468) [21]): 68% | Percent Control (kinases (468) [22]): 100% | Percent Control (kinases (468) [23]): 90% | Percent Control (kinases (468) [24]): 96% | Percent Control (kinases (468) [25]): 100% | Percent Control (kinases (468) [26]): 100% | Percent Control (kinases (468) [27]): 100% | Percent Control (kinases (468) [28]): 77% | Percent Control (kinases (468) [29]): 100% | Percent Control (kinases (468) [30]): 85% | Percent Control (kinases (468) [31]): 91% | Percent Control (kinases (468) [32]; JAK1(JH1domain-catalytic)): 100% | Percent Control (kinases (468) [32]; JAK1(JH2domain-pseudokinase)): 90% | Percent Control (kinases (468) [33]): 100%
